Measurements reported in paper PMC11062899, “De novo development of small cyclic peptides that are orally bioavailable” (Nature Chemical Biology, 2023).
Values joined by “and” are separate entries in the source; they are usually repeats but may differ in a detail not shown here. Identical values can stand only once. Like-named read-outs stand apart in the source and are kept apart here.

Key:
rat α-thrombin = molecular target: T1, rat α-thrombin (Rattus norvegicus, UniProt P18292); assay: Protease inhibition, Ki for rat α-thrombin (fluorogenic substrate Z-Gly-Gly-Arg-AMC); format: biochemical; settings: for Slope normalized to DMSO (proteolytic substrate cleavage over time) / Rat alpha thrombin inhibition, slope normalized to DMSO: replicates R1-R3
T1 construct: rat α-thrombin (Molecular Innovations) were used at final concentrations of 2 nM and 3 nM; purchased Molecular Innovations
In short: (§1)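 Ki values come from Cheng–Prusoff correction of IC50, itself fitted by four-parameter logistic regression of activity versus a no-peptide control. Assays used 2 nM human or 3 nM rat thrombin, 50 μM Z-Gly-Gly-Arg-AMC, 30 min kinetic fluorescence at 25 °C.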

[1] = Metabolic stability in rat liver microsomes (RLMs); settings: rat, microsomes
human α-thrombin = human α-thrombin (Homo sapiens, UniProt P00734); assay: Protease inhibition, Ki for human α-thrombin (fluorogenic substrate Z-Gly-Gly-Arg-AMC); format: biochemical; settings: for Human alpha thrombin inhibition, slope normalized to DMSO: replicates R1-R3
In short: as §1

[2] = Passive artificial membrane permeability (PAMPA)
porcine pepsin = molecular target: T2, porcine pepsin (Sus scrofa, UniProt P00791); assay: Peptide stability in simulated gastric fluid (SGF); format: in vitro ADME; design: remaining at 8 h: dose or concentration left out as unconfirmed; settings: for remaining at 8 h: pH 1.2
T2 construct: 0.32 g of porcine pepsin (Sigma-Aldrich, P7125) was dissolved under gentle agitation; purchased Sigma-Aldrich P7125
T2 sequence (P00791 60-385): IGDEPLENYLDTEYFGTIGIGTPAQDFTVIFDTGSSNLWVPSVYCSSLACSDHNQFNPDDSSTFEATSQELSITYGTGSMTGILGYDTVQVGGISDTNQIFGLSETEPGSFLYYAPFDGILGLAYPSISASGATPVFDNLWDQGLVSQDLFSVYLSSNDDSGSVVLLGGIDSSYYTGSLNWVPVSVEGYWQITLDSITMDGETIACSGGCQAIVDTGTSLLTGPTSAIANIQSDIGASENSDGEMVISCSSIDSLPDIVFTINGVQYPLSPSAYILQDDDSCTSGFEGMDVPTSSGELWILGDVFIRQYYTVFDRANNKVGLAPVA
In short: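 Peptide from a 1 mM DMSO stock was added to fluid pre-warmed at 37 °C. SGF was pH 1.2 NaCl with porcine pepsin (0.32 g per 100 ml), and SIF was pH 6.8 potassium phosphate with porcine pancreatin (1 g per 100 ml). Supernatant peptide was quantified by LC–MS, with residual expressed as T1/T0.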

[3] = peptide 1.33E+02 uM, slope of proteolytic substrate cleavage over time

Ki (rat α-thrombin; average of R1-R3, read-out: Ki Average): 0.0368 µM
Slope normalized to DMSO (proteolytic substrate cleavage over time) (rat α-thrombin; peptide 1.02E-03 uM): 94.9 and 90.5 and 126.3
Slope normalized to DMSO (proteolytic substrate cleavage over time) (rat α-thrombin; peptide 1.04E+00 uM): 9.4 and 10.0 and 7.6
Slope normalized to DMSO (proteolytic substrate cleavage over time) (rat α-thrombin; peptide 1.27E-04 uM): 95.1 and 96.6 and 96.3
Slope normalized to DMSO (proteolytic substrate cleavage over time) (rat α-thrombin; peptide 1.30E-01 uM): 36.1 and 35.6 and 32.6
Rat alpha thrombin inhibition, slope normalized to DMSO (rat α-thrombin; [3]): 7.9 and 5.3 and 6.2
Slope normalized to DMSO (proteolytic substrate cleavage over time) (rat α-thrombin; peptide 1.63E-02 uM): 78.2 and 76.9 and 78.3
Rat alpha thrombin inhibition, slope normalized to DMSO (rat α-thrombin; peptide 1.67E+01 uM): 4.9 and 5.1 and 4.0
Slope normalized to DMSO (proteolytic substrate cleavage over time) (rat α-thrombin; peptide 2.03E-03 uM): 89.6 and 92.6 and 90.5
Rat alpha thrombin inhibition, slope normalized to DMSO (rat α-thrombin; peptide 2.08E+00 uM): 5.8 and 4.5 and 4.3
Slope normalized to DMSO (proteolytic substrate cleavage over time) (rat α-thrombin; peptide 2.54E-04 uM): 95.9 and 93.5 and 98.7
Slope normalized to DMSO (proteolytic substrate cleavage over time) (rat α-thrombin; peptide 2.60E-01 uM): 24.9 and 24.5 and 24.7
Slope normalized to DMSO (proteolytic substrate cleavage over time) (rat α-thrombin; peptide 3.18E-05 uM): 97.8 and 96.7 and 99.3
Slope normalized to DMSO (proteolytic substrate cleavage over time) (rat α-thrombin; peptide 3.26E-02 uM): 68.3 and 65.8 and 66.5
Rat alpha thrombin inhibition, slope normalized to DMSO (rat α-thrombin; peptide 3.33E+01 uM): 4.3 and 4.0 and 4.9
Slope normalized to DMSO (proteolytic substrate cleavage over time) (rat α-thrombin; peptide 4.07E-03 uM): 90.1 and 88.8 and 91.4
Rat alpha thrombin inhibition, slope normalized to DMSO (rat α-thrombin; peptide 4.17E+00 uM): 4.1 and 2.6 and 2.8
Slope normalized to DMSO (proteolytic substrate cleavage over time) (rat α-thrombin; peptide 5.09E-04 uM): 95.0 and 94.4 and 95.5
Slope normalized to DMSO (proteolytic substrate cleavage over time) (rat α-thrombin; peptide 5.21E-01 uM): 15.5 and 14.5
Slope normalized to DMSO (proteolytic substrate cleavage over time) (rat α-thrombin; peptide 6.36E-05 uM): 97.1 and 98.7 and 90.6
Slope normalized to DMSO (proteolytic substrate cleavage over time) (rat α-thrombin; peptide 6.51E-02 uM): 52.7 and 50.7 and 50.5
Rat alpha thrombin inhibition, slope normalized to DMSO (rat α-thrombin; peptide 6.67E+01 uM): 3.6 and 3.0 and 1.8
Slope normalized to DMSO (proteolytic substrate cleavage over time) (rat α-thrombin; peptide 8.14E-03 uM): 84.4
Rat alpha thrombin inhibition, slope normalized to DMSO (rat α-thrombin; peptide 8.33E+00 uM): 4.9 (2×) and 4.3
IC50 (rat α-thrombin; single replicates R1-R3, read-out: IC50): 0.0717 µM and 0.0683 µM and 0.0597 µM
Ki (rat α-thrombin; single replicates R1-R3, read-out: Ki): 39.7 nM and 37.8 nM and 33 nM (2×)
microsomal CLint ([1]; CL (ul/min/mg protein) R1, RLM CL, replicate R1): 92.9 µL/min/mg
microsomal CLint ([1]; CL (ul/min/mg protein) R2, RLM CL, replicate R2): 68.2 µL/min/mg
microsomal CLint ([1]; CL (ul/min/mg protein) R3, RLM CL, replicate R3): 83.9 µL/min/mg
half-life ([1]; Half Life (min) R1, RLM metabolic stability, replicate R1, 0-60 min): 14.9 min
half-life ([1]; Half Life (min) R2, RLM metabolic stability, replicate R2, 0-60 min): 20.3 min
half-life ([1]; Half Life (min) R3, RLM metabolic stability, replicate R3, 0-60 min): 16.5 min
half-life ([1]; Metabolic stability: Half life T1/2 (min), RLMs, mean and SD, three measurements): 17.3 ± 2.3 min
microsomal CLint ([1]; Metabolic stability: RLM CL (ul/min/mg), RLMs, mean and SD, three measurements): 82 ± 10 µL/min/mg
microsomal CLint ([1]; Metabolic stability: RLM CL Average, summary table, average of R1-R3): 81.7 µL/min/mg
microsomal CLint ([1]; Metabolic stability: RLM CL R1, summary table, rounded, replicate R1): 92.9 µL/min/mg
microsomal CLint ([1]; Metabolic stability: RLM CL R2, summary table, rounded, replicate R2): 68.2 µL/min/mg
microsomal CLint ([1]; Metabolic stability: RLM CL R3, summary table, rounded, replicate R3): 83.9 µL/min/mg
IC50 (human α-thrombin; human alpha thrombin, individual replicates R1-R3, read-out: IC50): 0.122 µM and 0.107 µM and 0.104 µM
Ki (human α-thrombin; human alpha thrombin, individual replicates R1-R3, read-out: Ki): 94.1 nM and 82.8 nM and 80.4 nM
Ki (human α-thrombin; human alpha thrombin, average of R1-R3, read-out: Ki Average): 85.8 nM
Human alpha thrombin inhibition, slope normalized to DMSO (human α-thrombin; peptide 1.02E-03 uM): 92.7 and 96.3 and 98.1
Human alpha thrombin inhibition, slope normalized to DMSO (human α-thrombin; peptide 1.04E+00 uM): 14.1 and 15.4 and 19.5
Human alpha thrombin inhibition, slope normalized to DMSO (human α-thrombin; peptide 1.27E-04 uM): 98.4 and 100.1 and 101.4
Human alpha thrombin inhibition, slope normalized to DMSO (human α-thrombin; peptide 1.30E-01 uM): 51.2 and 52.1 and 48.8
Human alpha thrombin inhibition, slope normalized to DMSO (human α-thrombin; [3]): 8.1 and 8.7 and 9.0
Human alpha thrombin inhibition, slope normalized to DMSO (human α-thrombin; peptide 1.63E-02 uM): 87.3 and 78.8 and 85.1
Human alpha thrombin inhibition, slope normalized to DMSO (human α-thrombin; peptide 1.67E+01 uM): 9.8 and 9.6 and 8.8
Human alpha thrombin inhibition, slope normalized to DMSO (human α-thrombin; peptide 2.03E-03 uM): 100.0 and 90.9 and 98.1
Human alpha thrombin inhibition, slope normalized to DMSO (human α-thrombin; peptide 2.08E+00 uM): 10.6 and 11.3 and 7.9
Human alpha thrombin inhibition, slope normalized to DMSO (human α-thrombin; peptide 2.54E-04 uM): 99.0 and 98.6 and 98.3
Human alpha thrombin inhibition, slope normalized to DMSO (human α-thrombin; peptide 2.60E-01 uM): 38.3 and 36.0 and 36.6
Human alpha thrombin inhibition, slope normalized to DMSO (human α-thrombin; peptide 3.18E-05 uM): 100.0 and 103.6 and 101.9
Human alpha thrombin inhibition, slope normalized to DMSO (human α-thrombin; peptide 3.26E-02 uM): 77.4 and 76.3
Human alpha thrombin inhibition, slope normalized to DMSO (human α-thrombin; peptide 3.33E+01 uM): 8.8 and 8.2 and 6.8
Human alpha thrombin inhibition, slope normalized to DMSO (human α-thrombin; peptide 4.07E-03 uM): 95.6 and 92.2 and 94.3
Human alpha thrombin inhibition, slope normalized to DMSO (human α-thrombin; peptide 4.17E+00 uM): -2.0 and 6.9 and 2.0
Human alpha thrombin inhibition, slope normalized to DMSO (human α-thrombin; peptide 5.09E-04 uM): 98.9 and 97.6 and 107.7
Human alpha thrombin inhibition, slope normalized to DMSO (human α-thrombin; peptide 5.21E-01 uM): 24.9 and 24.6 and 25.0
Human alpha thrombin inhibition, slope normalized to DMSO (human α-thrombin; peptide 6.36E-05 uM): 101.3 and 99.0 and 104.0
Human alpha thrombin inhibition, slope normalized to DMSO (human α-thrombin; peptide 6.51E-02 uM): 65.9 and 65.1 and 64.6
Human alpha thrombin inhibition, slope normalized to DMSO (human α-thrombin; peptide 6.67E+01 uM): 8.2 and 10.4 and 4.8
Human alpha thrombin inhibition, slope normalized to DMSO (human α-thrombin; peptide 8.14E-03 uM): 92.7 and 91.1 and 94.4
Human alpha thrombin inhibition, slope normalized to DMSO (human α-thrombin; peptide 8.33E+00 uM): 14.8 and 11.1
Ki (human α-thrombin; purified peptide, mean and s.d. of three measurements, read-out: Ki human α-thrombin): 82 ± 10 nM
Ki (human α-thrombin; single replicates R1-R3, read-out: Ki (nM), human alpha thrombin inhibition): 94.1 nM and 82.8 nM and 80.4 nM
PAMPA permeability: % permeability ([2]; 50 μM, 12–18 h, acceptor concentration relative to equilibrium): 1.23 ± 0.72%
Papp at 50 μM ([2]; PAMPA, pH 7.4): 0.708 nm/s
Permeability% Average ([2]; PAMPA, average of R1-R3): 1.2%
Permeability% R1 ([2]; PAMPA, replicate R1, TIC of top well sample relative to sample at theoretical equilibrium): 0.47%
Permeability% R3 ([2]; PAMPA, replicate R3, TIC of top well sample relative to sample at theoretical equilibrium): 1.91%
SGF stability, Residual peptide (porcine pepsin; after 8 h vs 0 h (TIC), single replicates R1-R3): 36.24 and 43.40 and 29.72
remaining at 8 h (porcine pepsin; pig, simulated gastric fluid (SGF, USP) with porcine pepsin, after 8 h vs 0 h (TIC), average of R1-R3, read-out: SGF stability, Residual peptide Average): 36.5%
remaining at 8 h (porcine pepsin; simulated gi fluid, 8 h, 37 °C, read-out: Proteolytic stability: SGF (8 h) % remaining): 36 ± 7%
Structure (SMILES): O=C1C[C@H]2CCCN2C(=O)[C@H](Cc2ccccc2)NC(=O)[C@@H](NC(=O)c2ccc(Cl)s2)CSCCS(=O)(=O)CCSCCN1 [peptide 11]
